Experimental data: ChEMBL document CHEMBL3853293, “Part-1: Design, synthesis and biological evaluation of novel bromo-pyrimidine analogs as tyrosine kinase inhibitors” (Eur J Med Chem, 2016)

Key:
Bcr/Abl fusion protein = Bcr/Abl fusion protein (Homo sapiens, UniProt P00519); assay: Inhibition of BRC/ABL1 (unknown origin) after 40 mins by ADP-Glo assay; format: protein assay
[1] = Cytotoxicity against human U937 cells assessed as reduction in cell viability after 96 hrs by MTT assay; conditions: U-937, 96 h
[2] = Cytotoxicity against human HCT116 cells assessed as reduction in cell viability after 96 hrs by MTT assay; conditions: HCT-116, 96 h
[3] = Cytotoxicity against human L02 cells assessed as reduction in cell viability after 96 hrs by MTT assay; format: toxicity, cell-based
[4] = Cytotoxicity against human K562 cells assessed as reduction in cell viability after 96 hrs by MTT assay; conditions: K562, 96 h
[5] = Cytotoxicity against human A549 cells assessed as reduction in cell viability after 96 hrs by MTT assay; conditions: A549, 96 h

Bcr/Abl fusion protein, sequence (P00519 whole entry, the tested form may be a part): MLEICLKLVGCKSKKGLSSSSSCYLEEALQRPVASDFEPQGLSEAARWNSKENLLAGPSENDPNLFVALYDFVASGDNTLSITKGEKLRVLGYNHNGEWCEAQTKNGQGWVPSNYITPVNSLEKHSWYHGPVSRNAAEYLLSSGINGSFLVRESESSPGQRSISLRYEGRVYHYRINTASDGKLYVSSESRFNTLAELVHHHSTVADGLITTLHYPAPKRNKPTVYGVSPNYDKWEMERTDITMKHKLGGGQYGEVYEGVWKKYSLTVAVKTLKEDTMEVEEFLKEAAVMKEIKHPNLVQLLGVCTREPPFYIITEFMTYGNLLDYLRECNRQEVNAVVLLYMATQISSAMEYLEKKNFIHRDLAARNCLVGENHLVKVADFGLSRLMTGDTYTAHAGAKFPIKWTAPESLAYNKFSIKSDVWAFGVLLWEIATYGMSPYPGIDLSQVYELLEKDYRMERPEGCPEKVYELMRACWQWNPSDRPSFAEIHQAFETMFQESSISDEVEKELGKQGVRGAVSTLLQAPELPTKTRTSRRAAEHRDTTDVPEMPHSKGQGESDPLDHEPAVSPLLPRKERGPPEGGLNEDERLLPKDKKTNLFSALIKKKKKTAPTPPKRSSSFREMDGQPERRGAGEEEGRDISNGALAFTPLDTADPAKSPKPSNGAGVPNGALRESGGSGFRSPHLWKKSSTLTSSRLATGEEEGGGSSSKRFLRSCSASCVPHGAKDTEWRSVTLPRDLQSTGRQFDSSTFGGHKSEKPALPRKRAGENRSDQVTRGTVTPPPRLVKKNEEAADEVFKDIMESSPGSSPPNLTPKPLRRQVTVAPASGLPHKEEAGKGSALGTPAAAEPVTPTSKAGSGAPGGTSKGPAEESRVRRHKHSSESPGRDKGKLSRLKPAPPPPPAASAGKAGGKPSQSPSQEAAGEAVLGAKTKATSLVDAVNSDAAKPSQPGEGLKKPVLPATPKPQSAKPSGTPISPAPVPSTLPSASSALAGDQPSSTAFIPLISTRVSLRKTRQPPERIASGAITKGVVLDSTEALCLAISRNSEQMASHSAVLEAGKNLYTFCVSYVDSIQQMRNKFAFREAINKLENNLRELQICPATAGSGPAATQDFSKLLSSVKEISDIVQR
Bcr/Abl fusion protein, sequence (P11274 whole entry, further chain, the tested form may be a part): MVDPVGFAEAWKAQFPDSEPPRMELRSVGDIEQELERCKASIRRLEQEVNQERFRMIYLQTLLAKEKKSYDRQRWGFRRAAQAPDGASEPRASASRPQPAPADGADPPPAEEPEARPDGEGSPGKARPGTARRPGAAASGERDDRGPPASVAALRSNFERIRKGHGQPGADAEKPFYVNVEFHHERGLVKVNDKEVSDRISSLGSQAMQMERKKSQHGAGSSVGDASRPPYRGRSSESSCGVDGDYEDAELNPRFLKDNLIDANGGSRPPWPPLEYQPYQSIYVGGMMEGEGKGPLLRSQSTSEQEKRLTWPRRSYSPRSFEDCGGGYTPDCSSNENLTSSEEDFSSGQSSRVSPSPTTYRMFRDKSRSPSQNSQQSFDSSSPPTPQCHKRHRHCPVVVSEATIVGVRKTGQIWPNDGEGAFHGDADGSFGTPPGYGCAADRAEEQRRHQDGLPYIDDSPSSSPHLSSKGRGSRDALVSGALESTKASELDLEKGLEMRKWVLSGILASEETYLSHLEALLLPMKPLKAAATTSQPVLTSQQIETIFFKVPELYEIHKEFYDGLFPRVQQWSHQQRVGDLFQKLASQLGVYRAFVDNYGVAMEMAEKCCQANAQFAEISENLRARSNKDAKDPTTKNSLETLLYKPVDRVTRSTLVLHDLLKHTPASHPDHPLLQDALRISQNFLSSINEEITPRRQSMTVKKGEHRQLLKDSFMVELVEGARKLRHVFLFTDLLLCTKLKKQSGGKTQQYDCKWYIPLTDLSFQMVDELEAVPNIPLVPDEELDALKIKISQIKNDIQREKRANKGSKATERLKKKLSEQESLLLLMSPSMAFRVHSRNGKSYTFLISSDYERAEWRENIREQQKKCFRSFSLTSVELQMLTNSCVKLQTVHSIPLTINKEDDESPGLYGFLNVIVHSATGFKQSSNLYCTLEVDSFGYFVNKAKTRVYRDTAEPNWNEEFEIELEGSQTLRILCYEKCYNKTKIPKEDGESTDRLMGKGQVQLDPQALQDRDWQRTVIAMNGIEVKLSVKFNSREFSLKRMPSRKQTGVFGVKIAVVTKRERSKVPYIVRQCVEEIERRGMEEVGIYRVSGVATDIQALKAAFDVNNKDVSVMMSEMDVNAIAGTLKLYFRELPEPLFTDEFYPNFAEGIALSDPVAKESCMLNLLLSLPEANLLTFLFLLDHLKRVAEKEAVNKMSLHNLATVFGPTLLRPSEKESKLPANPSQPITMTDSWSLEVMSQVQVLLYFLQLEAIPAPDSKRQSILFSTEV

Compound	IC50 (Bcr/Abl fusion protein) [µM]	IC50 [1]	IC50 [2]	IC50 at 96 h [3] [µM]	IC50 [4]	IC50 [5]
O=C(c1ccc(C(F)(F)F)cc1)N1CCN(c2nc(Cl)ncc2Br)CC1	0.019	7.12 µg/mL	4.92 µg/mL	> 40	10.3 µg/mL	8.23 µg/mL
O=C(c1cc(Cl)ccc1Cl)N1CCN(c2nc(Cl)ncc2Br)CC1	2.28	11.3 µM	8.23 µM	> 40	9.22 µg/mL	10.5 µM
O=S(=O)(c1ccc(-c2ccccc2)cc1)N1CCN(c2nc(Cl)ncc2Br)CC1	0.64	–	–	–	–	–
O=S(=O)(C1CC1)N1CCN(c2nc(N3CCOCC3)ncc2Br)CC1	0.22	12.1 µM	8.11 µM	> 40	9.12 µg/mL	12 µM
Cc1noc(C)c1S(=O)(=O)N1CCN(c2nc(Cl)ncc2Br)CC1	0.56	–	–	–	–	–
O=S(=O)(c1ccc2ccccc2c1)N1CCN(c2nc(N3CCOCC3)ncc2Br)CC1	0.44	15.1 µM	9.56 µM	> 40	10.3 µg/mL	8.23 µg/mL
O=C(c1ccc(Cl)cc1[N+](=O)[O-])N1CCN(c2nc(Cl)ncc2Br)CC1	2.58	14.3 µM	7.34 µM	> 40	10.2 µg/mL	12.1 µM
Cc1nc(Nc2ncc(C(=O)Nc3c(C)cccc3Cl)s2)cc(N2CCN(CCO)CC2)n1 [DASATINIB]	–	10.2 µM	5.23 µM	> 40	12 µM	8.37 µM
CC(C)(C)c1ccc(S(=O)(=O)N2CCN(c3nc(N4CCOCC4)ncc3Br)CC2)cc1	1.15	12.8 µM	8.67 µM	> 40	9.09 µg/mL	12.4 µM
O=S(=O)(c1ccc(C(F)(F)F)cc1)N1CCN(c2nc(N3CCOCC3)ncc2Br)CC1	0.019	7.54 µg/mL	4.32 µg/mL	> 40	9.95 µg/mL	6.25 µg/mL
Cc1ccc(S(=O)(=O)N2CCN(c3nc(Cl)ncc3Br)CC2)cc1	58	–	–	–	–	–
O=S(=O)(C1CC1)N1CCN(c2nc(Cl)ncc2Br)CC1	> 500	–	–	–	–	–
CCCS(=O)(=O)N1CCN(c2nc(Cl)ncc2Br)CC1	> 500	–	–	–	–	–
O=C(c1ccc(F)cc1)N1CCN(c2nc(Cl)ncc2Br)CC1	0.019	9.12 µg/mL	8.11 µM	> 40	8.82 µg/mL	7.34 µg/mL
O=C(c1ccc(Cl)cc1[N+](=O)[O-])N1CCN(c2nc(N3CCOCC3)ncc2Br)CC1	> 500	13.1 µM	6.43 µM	> 40	13.2 µM	9.76 µM
Cc1noc(C)c1S(=O)(=O)N1CCN(c2nc(N3CCOCC3)ncc2Br)CC1	> 500	11.7 µM	8.34 µM	> 40	9.45 µg/mL	10.5 µM
O=C(c1cc(I)ccc1Cl)N1CCN(c2nc(Cl)ncc2Br)CC1	16.2	12.2 µM	6.51 µM	> 40	8.67 µg/mL	12.2 µM
Cc1ccc(S(=O)(=O)N2CCN(c3nc(N4CCOCC4)ncc3Br)CC2)cc1	1.98	10.5 µM	7.65 µM	> 40	10.3 µg/mL	9.23 µM

Compound	IC50 (Bcr/Abl fusion protein) [µM]	IC50 [1]	IC50 [2]	IC50 at 96 h [3] [µM]	IC50 [4]	IC50 [5]
Cc1ccc(S(=O)(=O)N2CCN(c3nc(N4CCOCC4)ncc3Br)CC2)c(C)c1	1.69	12.8 µM	8.56 µM	> 40	9.09 µg/mL	11.2 µM
O=C(c1c(F)cccc1F)N1CCN(c2nc(Cl)ncc2Br)CC1	2.65	12.4 µM	4.97 µg/mL	> 40	10.2 µg/mL	12.6 µM
O=S(=O)(c1cc(C(F)(F)F)cc(C(F)(F)F)c1)N1CCN(c2nc(Cl)ncc2Br)CC1	2.25	–	–	–	–	–
O=S(=O)(c1ccc(F)cc1)N1CCN(c2nc(N3CCOCC3)ncc2Br)CC1	4.52	11.1 µM	8.11 µM	> 40	9.32 µg/mL	9.34 µM
O=[N+]([O-])c1cc(C(F)(F)F)ccc1S(=O)(=O)N1CCN(c2nc(N3CCOCC3)ncc2Br)CC1	0.0206	7.14 µg/mL	4.02 µg/mL	> 40	9.65 µg/mL	6.65 µg/mL
O=S(=O)(c1cc(Cl)sc1Cl)N1CCN(c2nc(N3CCOCC3)ncc2Br)CC1	> 500	13.6 µM	9.23 µM	> 40	10.1 µg/mL	9.56 µM
O=C(c1ccc(F)cc1)N1CCN(c2nc(N3CCOCC3)ncc2Br)CC1	0.024	9.89 µg/mL	4.56 µg/mL	> 40	9.45 µg/mL	8.67 µM
COC(=O)NC(C(=O)N1CCN(c2nc(Cl)ncc2Br)CC1)C(C)C (stereo not drawn)	0.385	–	–	–	–	–
O=C(c1ccc(C(F)(F)F)cc1)N1CCN(c2nc(N3CCOCC3)ncc2Br)CC1	0.024	9.88 µg/mL	4.45 µg/mL	> 40	9.17 µg/mL	6.44 µg/mL
O=C(c1cc(Cl)c(Cl)c(Cl)n1)N1CCN(c2nc(Cl)ncc2Br)CC1	1.44	–	–	–	–	–
O=S(=O)(c1ccc(-c2ccccc2)cc1)N1CCN(c2nc(N3CCOCC3)ncc2Br)CC1	0.32	11.2 µM	9.12 µM	> 40	9.32 µg/mL	10.1 µM
CS(=O)(=O)N1CCN(c2nc(Cl)ncc2Br)CC1	0.255	–	–	–	–	–
O=[N+]([O-])c1cc(C(F)(F)F)ccc1S(=O)(=O)N1CCN(c2nc(Cl)ncc2Br)CC1	0.0226	–	–	–	–	–
O=C(c1c(F)cccc1F)N1CCN(c2nc(N3CCOCC3)ncc2Br)CC1	0.89	13.1 µM	5.56 µM	> 40	11.2 µg/mL	7.17 µg/mL
CS(=O)(=O)N1CCN(c2nc(N3CCOCC3)ncc2Br)CC1	–	11.6 µM	8.11 µM	> 40	12 µM	9.71 µM
O=S(=O)(c1ccc(F)cc1)N1CCN(c2nc(Cl)ncc2Br)CC1	122	–	–	–	–	–
N#Cc1ccc(S(=O)(=O)N2CCN(c3nc(N4CCOCC4)ncc3Br)CC2)cc1	> 500	12.2 µM	8.33 µM	> 40	10.5 µg/mL	12.4 µM
